The source made the active and inactive calls. The rule behind the calls is not given here.
Legend:
[1] = Metabolic stability in rat plasma assessed as half life at 200 uM and measured upto 24 hrs by HPLC analysis; type: ADME, cell-free
[2] = Prodrug conversion in Sprague-Dawley rat plasma assessed as Cmax of metabolite S-NBP at 10 mg/kg, iv and measured upto 24 hrs by LC-MS/MS analysis; type: ADME, organism-based; design: time < 24 hrs, dose 10 mg/kg, route iv; conditions: in vivo
[3] = Prodrug conversion in Sprague-Dawley rat plasma assessed as C0 of metabolite S-NBP at 10 mg/kg, iv and measured upto 24 hrs by LC-MS/MS analysis; type: ADME, organism-based; conditions: in vivo
[4] = Prodrug conversion in Sprague-Dawley rat plasma assessed as half life of metabolite 4-F-Eda at 10 mg/kg, iv and measured upto 24 hrs by LC-MS/MS analysis; type: ADME, organism-based; conditions: in vivo
[5] = Prodrug conversion in Sprague-Dawley rat plasma assessed as AUC (0-t) of metabolite S-NBP at 10 mg/kg, iv and measured upto 24 hrs by LC-MS/MS analysis; type: ADME, organism-based; design: time < 24 hrs, dose 10 mg/kg, route iv; conditions: in vivo
[6] = Prodrug conversion in Sprague-Dawley rat plasma assessed as Cmax of metabolite 4-F-Eda at 10 mg/kg, iv and measured upto 24 hrs by LC-MS/MS analysis; type: ADME, organism-based; design: time < 24 hrs, dose 10 mg/kg, route iv; conditions: in vivo
[7] = Prodrug conversion in Sprague-Dawley rat plasma assessed as AUC (0-t) of metabolite 4-F-Eda at 10 mg/kg, iv and measured upto 24 hrs by LC-MS/MS analysis; type: ADME, organism-based; design: dose 10 mg/kg, time < 24 hrs, route iv; conditions: in vivo
[8] = Prodrug conversion in Sprague-Dawley rat plasma assessed as AUC (0-infinity) of metabolite S-NBP at 10 mg/kg, iv and measured upto 24 hrs by LC-MS/MS analysis; type: ADME, organism-based; design: dose 10 mg/kg, time < 24 hrs, route iv; conditions: in vivo
[9] = tested on: Rattus norvegicus; test: Neuroprotective activity against transient middle cerebral artery occlusion induced cerebral infraction Sprague-Dawley rat model assessed as decrease in cerebral infraction volume at 10 mg/kg, iv and measured after 24 hrs by TTC staining based assay; type: functional; design: scale not given: the % may be the effect or the level left
[10] = Prodrug conversion in Sprague-Dawley rat plasma assessed as MRT of metabolite 4-F-Eda at 10 mg/kg, iv and measured upto 24 hrs by LC-MS/MS analysis; type: ADME, organism-based; conditions: in vivo
[11] = tested on: Rattus norvegicus; test: Neuroprotective activity against transient middle cerebral artery occlusion induced ischemia stroke Sprague-Dawley rat model assessed as increase in neuro-fucntional score at 10 mg/kg, iv and measured after 24 hrs by longa's method; type: functional, organism-based
[12] = Prodrug conversion in Sprague-Dawley rat plasma assessed as half life of metabolite S-NBP at 10 mg/kg, iv and measured upto 24 hrs by LC-MS/MS analysis; type: ADME, organism-based; conditions: in vivo
[13] = Prodrug conversion in Sprague-Dawley rat plasma assessed as AUMC (0-t) of metabolite S-NBP at 10 mg/kg, iv and measured upto 24 hrs by LC-MS/MS analysis; type: ADME, organism-based; conditions: in vivo
[14] = Prodrug conversion in Sprague-Dawley rat plasma assessed as elimination rate constant of metabolite S-NBP at 10 mg/kg, iv and measured upto 24 hrs by LC-MS/MS analysis; type: ADME, organism-based; conditions: in vivo
[15] = Prodrug conversion in Sprague-Dawley rat plasma assessed as 4-F-Eda metabolite formation at 10 mg/kg, iv and measured upto 24 hrs by LC-MS/MS analysis; type: ADME, organism-based; conditions: in vivo
[16] = Prodrug conversion in Sprague-Dawley rat plasma assessed as volume of distribution at steady state of metabolite 4-F-Eda at 10 mg/kg, iv and measured upto 24 hrs by LC-MS/MS analysis; type: ADME, organism-based; conditions: in vivo
[17] = tested on: Rattus norvegicus; test: Neuroprotective activity against transient middle cerebral artery occlusion induced cerebral infraction Sprague-Dawley rat model assessed as decrease in brain edema at 10 mg/kg, iv and measured after 24 hrs; type: functional; design: scale not given: the % may be the effect or the level left
[18] = Prodrug conversion in Sprague-Dawley rat plasma assessed as AUC (0-infinity) of metabolite 4-F-Eda at 10 mg/kg, iv and measured upto 24 hrs by LC-MS/MS analysis; type: ADME, organism-based; design: dose 10 mg/kg, time < 24 hrs, route iv; conditions: in vivo
[19] = Prodrug conversion in Sprague-Dawley rat plasma assessed as elimination rate constant of metabolite 4-F-Eda at 10 mg/kg, iv and measured upto 24 hrs by LC-MS/MS analysis; type: ADME, organism-based; conditions: in vivo
[20] = Prodrug conversion in Sprague-Dawley rat plasma assessed as volume of distribution at steady state of metabolite S-NBP at 10 mg/kg, iv and measured upto 24 hrs by LC-MS/MS analysis; type: ADME, organism-based; conditions: in vivo
[21] = Toxicity in transient middle cerebral artery occlusion induced ischemia stroke Sprague-Dawley rat model assessed as change in body weight at 10 mg/kg, iv and measured after 24 hrs; type: organism-based; conditions: in vivo
[22] = Metabolic stability in rat liver microsomes assessed as half life at 20 mM and measured upto 120 mins by HPLC analysis; type: ADME, Microsome
[23] = Prodrug conversion in Sprague-Dawley rat plasma assessed as S-NBP metabolite formation at 10 mg/kg, iv and measured upto 24 hrs by LC-MS/MS analysis; type: ADME, organism-based; conditions: in vivo
[24] = Prodrug conversion in Sprague-Dawley rat plasma assessed as AUMC (0-t) of metabolite 4-F-Eda at 10 mg/kg, iv and measured upto 24 hrs by LC-MS/MS analysis; type: ADME, organism-based; conditions: in vivo
[25] = Prodrug conversion in Sprague-Dawley rat plasma assessed as C0 of metabolite 4-F-Eda at 10 mg/kg, iv and measured upto 24 hrs by LC-MS/MS analysis; type: ADME, organism-based; conditions: in vivo
[26] = Prodrug conversion in Sprague-Dawley rat plasma assessed as AUMC (0-infinity) of metabolite S-NBP at 10 mg/kg, iv and measured upto 24 hrs by LC-MS/MS analysis; type: ADME, organism-based; conditions: in vivo
[27] = Prodrug conversion in Sprague-Dawley rat plasma assessed as MRT of metabolite S-NBP at 10 mg/kg, iv and measured upto 24 hrs by LC-MS/MS analysis; type: ADME, organism-based; conditions: in vivo
[28] = Prodrug conversion in Sprague-Dawley rat plasma assessed as AUMC (0-infinity) of metabolite 4-F-Eda at 10 mg/kg, iv and measured upto 24 hrs by LC-MS/MS analysis; type: ADME, organism-based; conditions: in vivo

## CCCC[C@H](OC(C)=O)c1ccccc1C(=O)Oc1cc(C)nn1-c1ccc(F)cc1
[1]
  half-life at 200 µM: 17 h
[2]
  Cmax: 3242 ng/mL
[3]
  C0: 4653 ng/mL
[4]
  t1/2: 5.11 h
[5]
  AUCt: 2740 ng·h/mL
[6]
  Cmax: 5569 ng/mL
[7]
  AUCt: 2958 ng·h/mL
[8]
  AUC: 2819 ng·h/mL
[9]
  Activity: 77.85%
[10]
  MRT: 1.77 h
[11]
  Activity: Active
[12]
  t1/2: 5.69 h
[13]
  AUMCt: 9914 hr.hr.ng/ml
[14]
  Kel: 0.123 h⁻¹
[15]
  Drug metabolism: Metabolite_Detected
[16]
  Vdss: 6.18 L/kg
[17]
  Activity: 13.96%
[18]
  AUC: 2990 ng·h/mL
[19]
  Kel: 0.143 h⁻¹
[20]
  Vdss: 16.1 L/kg
[21]
  Activity: Non-Toxic
[22]
  half-life: 0.833 h
[23]
  Drug metabolism: Metabolite_Detected
[24]
  AUMCt: 4095 hr.hr.ng/ml
[25]
  C0: 8328 ng/mL
[26]
  AUMC: 12474 hr.hr.ng/ml
[27]
  MRT: 4.45 h
[28]
  AUMC: 5109 hr.hr.ng/ml

From ChEMBL document CHEMBL5113452, “Synthesis and biological evaluation of hybrids from optically active ring-opened 3-N-butylphthalide derivatives and 4-fluro-edaravone as potential anti-acute ischemic stroke agents” (Bioorg Med Chem, 2022)
